Measurements from patent US11370794B2, “Toll-like receptor antagonist compounds and methods of use” (Dynavax Technologies Corporation, priority 2016, dated 2022).
Where two headings read alike, the source gives them in different places.

Key:
human TLR9 = biological target: T1, human TLR9 (Homo sapiens, UniProt Q9NR96); assay: Inhibition of human TLR9 in human B cells (IL-6 ELISA); format: cell-based; details: for IC50: human B cells, agonist 1018 ISS 1 μM; for inhibits TLR9-dependent responses (in words): summary statement of the description
T1 construct: endogenous in cells; host or cells: primary human B cells (CD19 microbeads) from buffy coats of healthy donors
T1 sequence (Q9NR96 26-1032): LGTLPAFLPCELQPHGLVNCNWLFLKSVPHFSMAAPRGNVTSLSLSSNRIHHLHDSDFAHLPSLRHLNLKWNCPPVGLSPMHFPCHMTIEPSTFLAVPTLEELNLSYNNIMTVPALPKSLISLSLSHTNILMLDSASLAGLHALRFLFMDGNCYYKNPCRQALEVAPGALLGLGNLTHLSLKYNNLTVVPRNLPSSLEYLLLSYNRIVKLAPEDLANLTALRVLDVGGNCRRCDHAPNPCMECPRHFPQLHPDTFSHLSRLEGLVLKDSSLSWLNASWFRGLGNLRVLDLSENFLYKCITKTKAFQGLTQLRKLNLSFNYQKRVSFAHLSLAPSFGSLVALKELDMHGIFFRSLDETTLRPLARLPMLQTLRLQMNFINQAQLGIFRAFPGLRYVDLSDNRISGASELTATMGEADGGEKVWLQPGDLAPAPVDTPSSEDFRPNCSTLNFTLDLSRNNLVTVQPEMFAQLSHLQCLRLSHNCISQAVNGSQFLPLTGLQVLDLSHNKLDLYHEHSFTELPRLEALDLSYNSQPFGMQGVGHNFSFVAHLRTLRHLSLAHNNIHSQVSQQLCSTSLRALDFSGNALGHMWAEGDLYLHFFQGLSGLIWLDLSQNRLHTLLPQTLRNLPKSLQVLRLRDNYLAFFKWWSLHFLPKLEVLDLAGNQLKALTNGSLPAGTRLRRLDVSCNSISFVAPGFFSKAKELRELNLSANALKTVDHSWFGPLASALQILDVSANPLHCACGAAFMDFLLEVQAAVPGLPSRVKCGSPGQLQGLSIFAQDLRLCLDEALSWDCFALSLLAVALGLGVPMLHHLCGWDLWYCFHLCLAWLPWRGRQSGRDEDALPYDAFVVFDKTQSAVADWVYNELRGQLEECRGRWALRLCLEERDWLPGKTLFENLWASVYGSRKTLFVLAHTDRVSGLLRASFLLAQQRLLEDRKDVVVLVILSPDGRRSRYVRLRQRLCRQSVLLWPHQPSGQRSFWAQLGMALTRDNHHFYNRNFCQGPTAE
Method: Example B3—Inhibition of Human TLR9 in Human B Cells
When placed in cell culture, engagement of TLR9 with an agonist leads to expression and release of cytokines into the media.
Buffy coats from anonymized, healthy human donors. CD19 microbeads (Miltenyi Cat. No. 130-050-301). TLR9 agonist, 1018 ISS, CpG-containing DNA oligonucleotide. Human interleukin (IL)-6 ELISA kit (Mabtech Cat. No. 3460-1H-20).
Following isolation of […] from buffy coats, human B cells were plated into 96 well plates at approximately 300,000 cells per well. Test compounds were serially diluted and added to the plates. Test compounds were typically assayed using a concentration range from about 0.01 μM to about 10 μM. Certain test compounds were further assayed in an expanded dilution series using a compound concentration range from about 0.001 μM to about 30 μM. Immediately after adding test compounds, the TLR9 agonist (1018 ISS, CpG-containing DNA oligonucleotide) was added to a final concentration of 1 μM. Cells were incubated for 48 hours at 37° C. A portion of the media supernatant was analyzed for the presence of IL-6 using ELISA kits. The amount of IL-6 produced is a reflection of the amount of TLR9-dependent receptor activity. The IC50 values (the concentration at which 50% of the TLR9-dependent receptor activity is reduced) were calculated based upon the TLR9-dependent receptor activity over a range of different test compound concentrations.

human TLR8 = biological target: T2, human TLR8 (Homo sapiens, UniProt Q9NR97); assay: Inhibition of human TLR8 in human monocytes (TNF-alpha / IL-1 beta ELISA); format: cell-based; details: human monocytes, agonist ORN8L 100 μg/mL, 24 hours
T2 construct: endogenous in cells; host or cells: primary human monocytes (CD14 microbeads) from buffy coats of healthy donors
T2 sequence (Q9NR97 27-1041): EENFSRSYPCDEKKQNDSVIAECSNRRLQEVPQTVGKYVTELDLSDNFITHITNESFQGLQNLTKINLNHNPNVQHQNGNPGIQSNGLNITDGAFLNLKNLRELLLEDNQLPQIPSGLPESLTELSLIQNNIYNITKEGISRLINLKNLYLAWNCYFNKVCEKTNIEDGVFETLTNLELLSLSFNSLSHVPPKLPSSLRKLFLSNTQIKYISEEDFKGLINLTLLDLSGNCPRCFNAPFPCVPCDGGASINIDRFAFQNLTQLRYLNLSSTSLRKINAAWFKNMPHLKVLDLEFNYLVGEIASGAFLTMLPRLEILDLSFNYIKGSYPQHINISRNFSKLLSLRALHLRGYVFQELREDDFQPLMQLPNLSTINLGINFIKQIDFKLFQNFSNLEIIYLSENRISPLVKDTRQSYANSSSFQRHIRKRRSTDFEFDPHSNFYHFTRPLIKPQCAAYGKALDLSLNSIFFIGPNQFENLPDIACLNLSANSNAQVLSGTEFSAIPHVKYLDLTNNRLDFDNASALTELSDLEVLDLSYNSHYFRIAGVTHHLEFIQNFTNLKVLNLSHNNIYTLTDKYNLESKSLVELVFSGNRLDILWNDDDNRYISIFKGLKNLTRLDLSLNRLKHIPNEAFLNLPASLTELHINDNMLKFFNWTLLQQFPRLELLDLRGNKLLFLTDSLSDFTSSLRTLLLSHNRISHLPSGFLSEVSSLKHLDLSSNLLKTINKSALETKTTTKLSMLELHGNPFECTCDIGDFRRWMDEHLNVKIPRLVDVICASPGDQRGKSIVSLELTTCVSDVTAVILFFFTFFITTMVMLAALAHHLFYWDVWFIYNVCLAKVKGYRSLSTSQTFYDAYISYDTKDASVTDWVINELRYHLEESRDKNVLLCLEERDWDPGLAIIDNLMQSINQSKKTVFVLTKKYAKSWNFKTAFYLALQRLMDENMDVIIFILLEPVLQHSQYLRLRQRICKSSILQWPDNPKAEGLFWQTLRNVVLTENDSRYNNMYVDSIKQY
Text: Example B2—Inhibition of Human TLR8 in Human Monocytes
When placed in cell culture, engagement of TLR8 with an agonist leads to expression and release of cytokines into the media.
Buffy coats from anonymized, healthy human donors. CD14 microbeads (Milteny Cat. No. 130-050-201). TLR8 agonist, (5′-M2UGCUGCUUGUG-/glycerol/-GUGUUCGUCGUM2-5′ with M2=C6-linker, ORN8L, RNA oligonucleotide (Chem Genes Corp.). Human TNF-alpha ELISA kit (Mabtech Cat. No. 3510-1H-20). Human interleukin (IL)-1 beta ELISA kit (Mabtech Cat. No. 3415-1H-20).
Following isolation of monocytes from buffy coats, human monocytes were plated into 96 well plates at approximately 200,000 cells per well. Test compounds were serially diluted and added to the plates. Immediately after adding test compounds, the TLR8 agonist (ORN8L, RNA oligonucleotide) was added to a final concentration of 100 μg/mL. Cells were incubated for 24 hours at 37° C. A portion of the media supernatant was analyzed for the presence of TNF-alpha and/or IL-1 beta using ELISA kits. The amount of TNF-alpha or IL-1 beta produced is a reflection of the amount of TLR8-dependent receptor activity. The IC50 values (the concentration at which 50% of the TLR8-dependent receptor activity is reduced) were calculated based upon the TLR8-dependent receptor activity over a range of different test compound concentrations.

[1] = IL-6 readout, 48 hours, range about 0.01 to 10 μM, read-out: Human TLR9 IC50
[2] = IL-1 beta readout, read-out: Human TLR8 IC50 IL-1b
[3] = TNF-alpha readout, read-out: Human TLR8 IC50 TNF-a

Compound | IC50 (human TLR9; [1]) [nM] | inhibits TLR9-dependent responses (in words) (human TLR9) | IC50 (human TLR8; [2]) [nM] | IC50 (human TLR8; [3]) [nM] | IC50 (human TLR9; IL-6, 48 hours, expanded dilution series about 0.001 to 30 μM, read-out: Human TLR9 IC50, expanded dilution series) [nM]
Cc1ccc(-n2nc3c(N4CCC(C(=O)NCCCN5CCOCC5)CC4)nnc(C)c3c2C)cc1 [Compound No. 19x, 1-(3,4-dimethyl-2-(p-tolyl)-2H-pyrazolo[3,4-d]pyridazin-7-yl)-N-(3-morpholinopropyl)piperidine-4-carboxamide] | 18 | inhibit | 740 | 740 | –
Cc1ccc(-n2nc3c(N4CCC(C(=O)NC5CCN(C)C5)CC4)nnc(C)c3c2C)cc1 (stereo not shown) [compound 17, 1-(3,4-dimethyl-2-(p-tolyl)-2H-pyrazolo[3,4-d]pyridazin-7-yl)-N-(1-methylpyrrolidin-3-yl)piperidine-4-carboxamide] | 83 | – | > 10000 | > 10000 | –
Cc1ccc(-n2nc3c(N4CCC(CCC(=O)NC5CN(C)C5)CC4)nnc(C)c3c2C)cc1 [compound 66, 3-(1-(3,4-dimethyl-2-(p-tolyl)-2H-pyrazolo[3,4-d]pyridazin-7-yl)piperidin-4-yl)-N-(1-methylazetidin-3-yl)propanamide] | 182 | – | – | ≥ 20000 | –
Cc1ccc(-n2cc3cnnc(N4CCC(C(=O)NC5CN(C)C5)CC4)c3n2)cc1 [compound 62, N-(1-methylazetidin-3-yl)-1-(2-(p-tolyl)-2H-pyrazolo[3,4-d]pyridazin-7-yl)piperidine-4-carboxamide] | 21 | – | – | 3840 | –
Cc1ccc(-n2cc3cnnc(N4CCC(C(=O)NCCN5CCOCC5)CC4)c3n2)cc1 [compound 64, N-(2-morpholinoethyl)-1-(2-(p-tolyl)-2H-pyrazolo[3,4-d]pyridazin-7-yl)piperidine-4-carboxamide] | 557 | – | – | ≥ 20000 | –
Cc1ccc(-n2cc3cnnc(N4CCC(C(=O)NCCN(C)C)CC4)c3n2)cc1 [compound 46, N-(2-(dimethylamino)ethyl)-1-(2-(p-tolyl)-2H-pyrazolo[3,4-d]pyridazin-7-yl)piperidine-4-carboxamide] | 2 | inhibit | – | ≥ 20000 | 10
Cc1ccc(-n2cc3cnnc(N4CCC(C(=O)N5CCC(CN(C)C)C5)CC4)c3n2)cc1 (stereo not shown) [compound 60, (3-((dimethylamino)methyl)pyrrolidin-1-yl)(1-(2-(p-tolyl)-2H-pyrazol[3,4-d]pyridazin-7-yl)piperidin-4-yl)methanone] | 2 | – | – | 980 | –
Cc1ccc(-n2nc3c(N4CCC(C(=O)NCCCN(C)C)CC4)nnc(I)c3c2C)cc1 [compound 41, N-(3-(dimethylamino)propyl)-1-(4-iodo-3-methyl-2-(p-tolyl)-2H-pyrazolo[3,4-d]pyridazin-7-yl)piperidine-4-carboxamide] | 793 | – | – | ≥ 20000 | –
Cc1ccc(-n2cc3cnnc(N4CCC(C(=O)NCCCN(C)C)CC4)c3n2)cc1 [Compound No. 29, N-(3-(dimethylamino)propyl)-1-(2-(p-tolyl)-2H-pyrazolo[3,4-d]pyridazin-7-yl)piperidine-4-carboxamide] | 7 | inhibit | 1610 | > 10000 | –
Cc1ccc(-n2nc3c(Cl)nnc(N4CCC(C(=O)NCCCN(C)C)CC4)c3c2C)cc1 [compound 48, 1-(7-chloro-3-methyl-2-(p-tolyl)-2H-pyrazolo[3,4-d]pyridazin-4-yl)-N-(3-(dimethylamino)propyl)piperidine-4-carboxamide] | 10800 | – | – | ≥ 20000 | –
Cc1ccc(-n2nc3c(N4CCC(C(=O)N[C@H]5C[C@H](N(C)C)C5)CC4)nnc(C)c3c2C)cc1 [Compound No. 12a, 1-(3,4-dimethyl-2-(p-tolyl)-2H-pyrazolo[3,4-d]pyridazin-7-yl)-N-((1r,3r)-3-(dimethylamino)cyclobutyl)piperidine-4-carboxamide] | 71 | – | > 10000 | > 10000 | –
Cc1ccc(-n2nc3c(N4CCCC(C(=O)NCCNC(C)C)C4)nnc(C)c3c2C)cc1 (stereo not shown) [compound 16, 1-(3,4-dimethyl-2-(p-tolyl)-2H-pyrazolo[3,4-d]pyridazin-7-yl)-N-(2-(isopropylamino)ethyl)piperidine-3-carboxamide] | 46 | – | – | ≥ 20000 | –
Cc1nnc(N2CCC(C(=O)NCCCN(C)C)CC2)c2nn(-c3cccnc3)c(C)c12 [compound 23, 1-(3,4-dimethyl-2-(pyridin-3-yl)-2H-pyrazolo[3,4-d]pyridazin-7-yl)-N-(3-(dimethylamino)propyl)piperidine-4-carboxamide] | > 10000 | – | – | ≥ 20000 | –
